Experimental data taken from article PMC7917093, “Multiomics-based dissection of citrus flavonoid metabolism using a Citrus reticulata × Poncirus trifoliata population” (Horticulture Research, 2021).

What was measured:
[1] = tested on: T1, CitF3H (P. trifoliata allele); experiment: LC-MS product assay, Michaelis-Menten fit; type: biochemical, Citrus trifoliata; conditions: 0-1000 μM naringenin; 2-oxoglutarate 10 mM, FeSO4 0.25 mM, ascorbate 10 mM; Tris-HCl pH 8.5; 35 °C
T1 construct: gene F3H; natural allele with five amino acid differences and one indel versus C. reticulata

[2] = tested on: T2, CitF3H (C. reticulata allele); experiment: LC-MS product assay, Michaelis-Menten fit; type: biochemical, Citrus reticulata; conditions: 0-1000 μM naringenin; 2-oxoglutarate 10 mM, FeSO4 0.25 mM, ascorbate 10 mM; Tris-HCl pH 8.5; 35 °C
T2 construct: gene F3H

Km [1]: 7.61 µM | Km [2]: 121 µM
SMILES: O=C1C[C@@H](c2ccc(O)cc2)Oc2cc(O)cc(O)c21 [naringenin]
